From patent publication US12492373B2, “Production method for nerve tissue” (Racthera Co., Ltd., priority 2014, dated 2025)

Legend:
[1] = system: human iPS cells (Ff-I01 strain); assay: Neural tissue / neuroepithelium formation in cell aggregates, bright field observation; assay type: cell-based; settings: StemFit AK03N; SAG 300 nM for 24, 48, 72 or 96 hr in step 1, SAG 500 nM in step 2, BMP4 1.5 nM; day 19
Method: At the time of the start of suspension culturing (day 0 after the start of suspension culturing, […]), Y27632 ([…]) were added to the above serum-free medium (FIG. 22). By day 2 after the start of suspension culturing, a cell aggregate was formed (step 2 completed, step 3 start) under any conditions. On day 3 or later from the start of suspension culturing, BMP4 was added under 3 conditions including the following conditions 1-3. • Condition 1: (+BMP4 addition once) On day 3 of suspension culturing, a medium (50 μl) free of Y27632 and SAG, and containing human recombinant BMP4 (manufactured by R&D) was added such that the final concentration of exogenous human recombinant BMP4 was 1.5 nM (55 ng/ml). On day 6 or later from the start of suspension culturing, a half amount of the medium was changed to a serum-free medium free of Y27632, SAG and human recombinant BMP4. • Condition 2: (+BMP4 addition twice) On day 3 of suspension culturing, a medium (50 μl) free of Y27632, SAG and containing human recombinant BMP4 (manufactured by R&D) was added such that the final concentration of exogenous human recombinant BMP4 was 1.5 nM (55 ng/ml). On day 6 from the start of suspension culturing, 50 μl of the medium was discarded, and 50 μl of a medium free of Y27632 and SAG and containing human recombinant BMP4 (manufactured by R&D) was added to maintain the final concentration of exogenous human recombinant BMP4 at 1.5 nM (55 ng/ml). On day 9 or later from the start of suspension culturing, a half amount of the medium was changed with a serum-free medium free of Y27632, SAG, and human recombinant BMP4. • Condition 3: (+BMP4 addition three times) On day 3 of suspension culturing, a medium (50 μl) free of Y27632, SAG and containing human recombinant BMP4 (manufactured by R&D) was added such that the final concentration of exogenous human recombinant BMP4 was 1.5 nM (55 ng/ml). On days 6 and 9 from the start of suspension culturing, 50 μl of the medium was discarded, and 50 μl of a medium free of Y27632 and SAG and containing human recombinant BMP4 (manufactured by R&D) was added to maintain the final concentration of exogenous human recombinant BMP4 at 1.5 nM (55 ng/ml). On day 12 or later from the start of suspension culturing, a half amount of the medium was changed with a serum-free medium free of Y27632, SAG and human recombinant BMP4. […]
On day 3 after the start of suspension culturing, a medium (50 μl) free of Y27632 and SAG, and containing human recombinant BMP4 (manufactured by R&D) was added such that the final concentration of exogenous human recombinant BMP4 was 1.5 nM (55 ng/ml) or 5 nM (183 ng/ml). […]

[2] = system: human iPS cells (Ff-I01 strain); assay: Immunostaining of aggregate sections for retinal tissue marker Chx10; assay type: cell-based; settings: StemFit AK03N, day 19
Source text: (§1) Cell aggregates on day 16 after the start of suspension culturing were fixed with 4% para-formaldehyde to prepare frozen sections. These frozen sections were immunostained for Chx10 (anti-Chx10 antibody, Exalpha, sheep), which is one of the retinal tissue markers. These immunostained sections were observed under a fluorescence microscope.
Cell aggregates on day 16 after the start of suspension culturing were fixed with 4% para-formaldehyde to prepare frozen sections. These frozen sections were immunostained for Chx10 (anti-Chx10 antibody, Exalpha, sheep), which is one of the retinal tissue markers, and observed under a fluorescence microscope. […] In addition, the proportion of Chx10-positive cells in the total cells is about 80% under conditions with the addition of BMP4 twice to maintain the final concentration of 5 nM (FIG. 23, D)
The cell aggregates on day 19 after the start of suspension culturing were fixed with 4% para-formaldehyde to prepare frozen sections. These frozen sections were immunostained for Chx10 (anti-Chx10 antibody, Exalpha, sheep), which is one of the retinal tissue markers. These immunostained sections were observed under an inverted fluorescence microscope. As a result, the proportion of Chx10-positive cells in the total cells is about 70% under conditions with the addition of BMP4 twice to maintain the final concentration of 1.5 nM ([…]). In addition, the proportion of Chx10-positive cells in the total cells is about 90% under conditions with the addition of BMP4 twice to maintain the final concentration of 5 nM (FIG. 34, D).
as §1, with “The thus-prepared cell” for “Cell”, “19” for “16”, “markers, and” for “markers. These immunostained sections were”

CNC1CCC(N(Cc2cccc(-c3ccncc3)c2)C(=O)c2sc3ccccc3c2Cl)CC1 (stereo not drawn) [SAG]
cell aggregate growth and neuroepithelium formation [1]: neuroepithelium can be formed efficiently
proportion of Chx10-positive cells in the total cells ([2]; SAG 300 nM for 48, 72 or 96 hr in step 1, SAG 500 nM in step 2, BMP4 1.5 nM): about 80%
proportion of Chx10-positive cells in the total cells ([2]; SAG 300 nM for 24 hr in step 1, SAG 500 nM in step 2, BMP4 1.5 nM): about 10%
